Non-standard residues stand in square brackets, D forms with d. Residues, ends and D or L forms follow the SMILES beside them. *: point of attachment. X1 = CN(C)c1ccc2c(c1)Oc1cc(N(C)C)ccc1C21OC(=O)c2cc(NC(=S)*)ccc21; pT = C[C@@H](OP(=O)(O)O)[C@H](N)C(=O)O; pS = N[C@@H](COP(=O)(O)O)C(=O)O
Experiments:
Pin1 = biological target: T1, Pin1 (Homo sapiens, UniProt Q13526); experiment: Fluorescence anisotropy binding of rhodamine-labeled peptides to full length Pin1; conditions: errors are deviations from theoretical binding isotherms
T1 construct: His8 (cleaved yes); made in house; host or cells: E. coli
Protocol: (§1) Protein purification and crystallography. His8-tagged Pin1 was expressed and purified by Ni^+2-chelation chromatography, the histidine tag was removed by thrombin digestion, and the protein purified as described in Ranganathan et al., Cell 89:875–886, 1997. All site-directed mutants were constructed using the QuikChange (Stratagene) protocol and purified like wild type Pin1. Crystals of the Pin1-YpSPTpSPS complex were grown in hanging drops at 4° C. by mixing 1.0 μl of the Pin1-peptide complex with 1.0 μl of a reservoir solution containing 100 mM MOPSO-Na^+ (pH 7.0), 28% (v/v) PEG 8000, 2 mM DTT, stabilized in 100 mM MOPSO-Na^+ (pH 7.0), 25% (v/v) PEG 8000, 20% (v/v) glycerol, 1 mM DTT, and rapidly frozen in a 100 K stream of nitrogen gas. […]
(§2) Binding Analysis. […] Fluorescence data were collected on a PTI Alphascan spectrofluorimeter (Photon Technology Instruments, Santa Clara, Calif.). Dissociation equilibrium constants for Pin1-peptide complexes were determined by measuring the change in fluorescence anisotropy of a set of peptide solutions at constant concentration of peptide each of which contained varied concentrations of Pin1 using the procedure described previously (Vinson et al., Biochemistry 37:10871–10880, 1998). The core binding element determined from this group of peptides is PXpSP, where X cannot be Gly. […]

Pin1 PPIase domain = biological target: T2, Pin1 PPIase domain (Homo sapiens, UniProt Q13526); experiment: Fluorescence anisotropy binding of rhodamine-labeled peptides to isolated Pin1 PPIase domain
T2 construct: the PPIase domain includes residues 50–163 of Pin1
Protocol: Protein purification and crystallography. His8-tagged Pin1 was expressed and purified by Ni^+2-chelation chromatography, the histidine tag was removed by thrombin digestion, and the protein purified as described in Ranganathan et al., Cell 89:875–886, 1997. All site-directed mutants were constructed using the QuikChange (Stratagene) protocol and purified like wild type Pin1. Crystals of the Pin1-YpSPTpSPS complex were grown in hanging drops at 4° C. by mixing 1.0 μl of the Pin1-peptide complex with 1.0 μl of a reservoir solution containing 100 mM MOPSO-Na^+ (pH 7.0), 28% (v/v) PEG 8000, 2 mM DTT, stabilized in 100 mM MOPSO-Na^+ (pH 7.0), 25% (v/v) PEG 8000, 20% (v/v) glycerol, 1 mM DTT, and rapidly frozen in a 100 K stream of nitrogen gas. A native data set extending to 1.84 Å resolution was collected at the Stanford Synchrotron Radiation Laboratory, beamline 9-1 (λ=0.98 Å). Data were processed with DENZO and scaled with […] (Otwinowski, Z., Minor, W. Meth. Enzymol. 276:307–326, 1997). The crystals contain one Pin1-peptide complex per asymmetric unit and belong to space group P212121 (a=35.27 Å, b=43.90 Å, c=124.66 Å, α=β=γ=90°). The final data set with an overall R merge of 6.2% (R merge=33.7% in the highest resolution shell) is 97.3% complete (98.2% in the highest resolution shell) for the resolution range of 62.02 Å to 1.84 Å. The structure of the Pin1-YpSPTpSPS repeat complex was solved by molecular replacement with AMORE (Navaza, J. Acta Crystallogr. A 50:157–163, 1994) using the Pin1 monomer as a starting model (Ranganathan et al., Cell 89:875–886, 1997). The resulting model was then positionally refined against all the data between 62.02 Å and 1.84 Å using the default bulk solvent model in CNS with maximum likelihood targets (Brunger et al., Acta Crystallogr. D 54:905–921, 1998). After refining the rebuilt model, water molecules were added automatically using CNS and edited manually in O. The final positional refinement converged to a crystallographic R factor of 24% (R free=27%) for all data (17107 reflections) between 62.02 Å and 1.84 Å. This model consists of residues 1 to 38 and 51 to 163 of human Pin1, the entire phosphopeptide, and 151 water molecules. Model quality was checked with PROCHECK (Laskowski et al., J. Appl. Crystallogr. 26:283–291, 1993). A total of 91.7% of the residues are in the most favored regions of the Ramachandran plot, 6.8% in the additional allowed region, and 0.8% in the generously allowed region. Glu-5 borders the generously allowed region.
as §2, with “Analysis. […] These peptides were derived from proteins previously shown to interact with Pin1. While the set of peptides examined is limited, a consensus emerges from comparison of the highest affinity interactions. Lyophilized peptides were dissolved in 25 mM HEPES-Na^+ (pH 7.5), 100 mM NaCl, 1 mM DTT and stored for short periods of time at −20° C.” for “Analysis.”

Pin1 WW domain = biological target: T3, Pin1 WW domain (Homo sapiens, UniProt Q13526); experiment: Fluorescence anisotropy binding of rhodamine-labeled peptides to isolated Pin1 WW domain
T3 construct: The WW domain of Pin1 includes residues 1 to 39
Protocol: as §1, §2

T2 sequence (Q13526 50-163): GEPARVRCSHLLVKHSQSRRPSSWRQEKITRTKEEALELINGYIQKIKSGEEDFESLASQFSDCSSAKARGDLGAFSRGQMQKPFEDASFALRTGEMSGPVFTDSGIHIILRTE
T1 sequence (Q13526 whole entry): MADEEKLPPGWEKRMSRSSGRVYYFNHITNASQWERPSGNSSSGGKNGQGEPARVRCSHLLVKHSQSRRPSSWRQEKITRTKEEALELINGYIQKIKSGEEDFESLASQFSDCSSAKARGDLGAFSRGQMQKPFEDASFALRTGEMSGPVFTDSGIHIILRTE
T3 sequence (Q13526 1-39 limits assumed): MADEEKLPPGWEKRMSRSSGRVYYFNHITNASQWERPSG

| Dissociation equilibrium constants for Pin1-peptide complexes, Pin1 (Pin1) | Dissociation equilibrium constants for Pin1-peptide complexes, PPIase (Pin1 PPIase domain) | Dissociation equilibrium constants for Pin1-peptide complexes, WW (Pin1 WW domain) | Molecule |
| --- | --- | --- | --- |
| n.b. | n.b. | n.b. | YSPTSPS [YSPTSPS (CTD), unphosphorylated heptad repeat of the C-terminal domain of RNA Polymerase II, rhodamine-labeled] |
|  | n.b. |  | CN(C)c1ccc2c(c1)Oc1cc(N(C)C)ccc1C21OC(=O)c2cc(NC(=S)N3CCC[C@H]3C(=O)N3CCC[C@H]3C(=O)NCC(=O)N[C@@H](COP(=O)(O)O)C(=O)N3CCC[C@H]3C(=O)N3CCC[C@H]3C(=O)O)ccc21 [PPGpSPP (Myt1-S416), PPGpSPP] (X1-PPG[pS]PP-OH) |
|  | n.b. |  | CC(C)[C@H](NC(=O)[C@@H]1CCCN1C(=O)[C@@H](NC(=O)[C@H](CCCNC(=N)N)NC(=O)[C@@H]1CCCN1C(=O)[C@@H](NC(=S)Nc1ccc2c(c1)C(=O)OC21c2ccc(N(C)C)cc2Oc2cc(N(C)C)ccc21)C(C)C)[C@@H](C)OP(=O)(O)O)C(=O)O [VPRpTPV (Cdc25c-T48), VPRpTPV] (X1-VPR[pT]PV-OH) |
|  | n.b. |  | C[C@@H](O)[C@H](NC(=O)[C@H](CO)NC(=S)Nc1ccc2c(c1)C(=O)OC21c2ccc(N(C)C)cc2Oc2cc(N(C)C)ccc21)C(=O)N[C@@H](CO)C(=O)N[C@H](C(=O)N1CCC[C@H]1C(=O)N[C@@H](CCCNC(=N)N)C(=O)O)[C@@H](C)OP(=O)(O)O [STSpTPR (Myt1-T455), STSpTPR] (X1-STS[pT]PR-OH) |

| Molecule | Dissociation equilibrium constants for Pin1-peptide complexes, Pin1 (Pin1) | Dissociation equilibrium constants for Pin1-peptide complexes, PPIase (Pin1 PPIase domain) | Dissociation equilibrium constants for Pin1-peptide complexes, WW (Pin1 WW domain) |
| --- | --- | --- | --- |
| C[C@H](NC(=O)[C@@H]1CCCN1C(=O)[C@@H]1CCCN1C(=S)Nc1ccc2c(c1)C(=O)OC21c2ccc(N(C)C)cc2Oc2cc(N(C)C)ccc21)C(=O)N[C@H](C(=O)N1CCC[C@H]1C(=O)N1CCC[C@H]1C(=O)O)[C@@H](C)OP(=O)(O)O [PPApTPP (Myt1-T412), PPApTPP] (X1-PPA[pT]PP-OH) |  | n.b. |  |

Reference: patent publication US7127357B1, “Crystal structure of WW domains and methods of use thereof” (The Salk Institute for Biological Studies, priority 2000, dated 2006)
